According to PMC12735704, “Synthesis of Substituted 1H-Phenalen-1-ones and Nitrogen-Containing Heterocyclic Analogues as Potential Anti-Plasmodial Agents” (Molecules, 2025):
Where two headings read alike, the source gives them in different places.

Experiments:
[1] = system: Chloroquine-resistant P. falciparum FCR3; experiment: In vitro antimalarial assay (parasitemia by blood smear, 48 h with compound); format: cell-based, Plasmodium falciparum; conditions: mean ± SD of three determinations
Description: • In vitro antimalarial assay.
FCR-3 chloroquine-resistant strain of P. falciparum (kindly provided by Dr. Fandeur, Pasteur Institute, Cayenne, France) was cultured on glucose-enriched RPMI 1640 medium, supplemented with 10% human serum at 37 °C. After 24 h of incubation at 37 °C, the medium was replaced by fresh medium supplemented with the compound to be evaluated (initial a screening used a concentration of 10 μg/mL), and incubation was continued for a further 48 h. On the third day of the test, a blood smear was taken from each well, and parasitemia was calculated for each concentration of sample compared to the control. Chloroquine (0.1 μg/mL) was used as a positive control. IC50 values were determined graphically by plotting concentrations (0.01–10 μg/mL) versus percent inhibition. All tests were performed in triplicate.

MCF-7 cells = experiment: Cytotoxicity study by MTT proliferation assay; format: cell-based; conditions: 72 h; for inhibition at 10 µM: Homo sapiens, MCF7, inhibition of cell growth, read-out: MCF-7 % Inh ± DS (10 μM); for MCF-7 % Inh ± DS (10 μM): inhibition of cell growth
Description: • Cytotoxicity study by MTT proliferation assay. MCF-7 cells were purchased from ATCC (Manassas, VA, USA) and cultured in DMEN containing 10% FBS. For 3-(4,5-dimethylthiazol-2-yl)-2,5-diphenyltetrazolium (MTT) (Sigma–Aldrich, St. Louis, MO, USA) analysis, cells were plated in 96-well plates at 10,000 cells/well. Twenty-four hours after plating, vehicle (0.1% DMSO, final concentration) or compound was added to cells at indicated doses. Seventy-two hours following compound addition, MTT was added to each well (0.5 mg/mL, final concentration) and plates were incubated for an additional 3 h at 37 °C. Medium was then aspirated and the formazan product was solubilized in SDS–HCl (20% SDS; HCl 0.02 M). The absorbance of each well was measured at 570 nm using a microplate reader (Sigma–Aldrich, St. Louis, MO, USA).

[2] = system: Chloroquine-resistant P. falciparum FCR3; experiment: In vitro antimalarial assay (parasitemia by blood smear, 48 h with compound); format: cell-based, Plasmodium falciparum; conditions: for antiplasmodium activity (in words): FCR3 strain, tested up to 10 µM
Plasmodium falciparum = system: Plasmodium falciparum; design: method as in PMID 23985373; conditions: previously tested compounds; read-out: IC50 (antiplasmodial activity, previously tested compounds); cited from earlier work
[3] = Plasmodium falciparum, FCR3, FCR3 strain

Row | Compound | IC50 [1, 3] [µM] | inhibition at 10 µM (MCF-7 cells) [%] | antiplasmodium activity (in words) [2] | further results
1 | O=C1C=Cc2cccc3cncc1c23 [Compound 35, 4H-benzo[de]isoquinolin-4-one] | > 10 | 7 ± 0.1 | complete loss of activity | –
2 | O=C1C=Cc2cccc3ccc(-c4ccccc4)c1c23 [Compound 9, 9-Phenyl-1H-phenalen-1-one] | > 10 | 6 ± 0.1 | – | –
3 | N#Cc1ccc2cccc3c2c1C(=O)C=C3 [Compound 18, 1-oxo-1H-phenalene-9-carbonitrile] | – | 32 ± 0.5 | most potent compound | –
4 | COc1ccc(Nc2ccc3cccc4c3c2C(=O)C=C4)cc1 [Compound 15, 9-[(4-methoxyphenyl)amino]-1H-phenalen-1-one] | > 10 | 1 ± 0.4 | – | –
5 | COc1cccc2c1C(=O)c1c(O)c3c(c(O)c1C2=O)C[C@@](O)(C(=O)CO)C[C@@H]3O[C@H]1C[C@H](N)[C@H](O)[C@H](C)O1 [Adriamycin, reference compound] | – | 63 ± 4.7 | – | –
6 | O=C1C(c2ccoc2)=Cc2cccc3cccc1c23 [Compound 7, 2-(3-furyl)-1H-phenalen-1-one] | > 10 | 22 ± 0.2 | significant loss in antiplasmodium activity | –
7 | COc1cccc(-c2ccc3cccc4c3c2C(=O)C=C4)c1 [Compound 13, 9-(3-methoxyphenyl)-1H-phenalen-1-one] | > 10 | 12 ± 0.1 | – | –
8 | O=C1C(I)=Cc2cccc3cccc1c23 [Compound 3, 2-Iodo-1H-phenalen-1-one] | > 10 | 4 ± 0.4 | significant loss in antiplasmodium activity | –
9 | CCN(CC)CCCC(C)Nc1ccnc2cc(Cl)ccc12 (centres unmarked) [Chloroquine, reference compound] | – | – | – | IC50 ([2]; Plasmodium falciparum, FCR3, read-out: Chloroquine-Resistant P. falciparum FCR3 IC50 ± SD): 0.16 ± 0.02 µM
10 | O=C1C(c2ccc(F)cc2)=Cc2cccc3cccc1c23 [Compound 6, 2-(4-fluorophenyl)-1H-phenalen-1-one] | > 10 | 10 ± 2 | – | –
11 | COc1ccccc1-c1ccc2cccc3c2c1C(=O)C=C3 [Compound 14, 9-(2-methoxyphenyl)-1H-phenalen-1-one] | > 10 | 15 ± 0.2 | – | –
12 | N#Cc1ccc(C2=Cc3cccc4cccc(c34)C2=O)cc1 [Compound 5, 4-(1-oxo-1H-phenalen-2-yl)benzonitrile] | > 10 | 12 ± 0.3 | – | –
13 | O=C1C=Cc2cccc3ccc(-c4ccc(F)cc4)c1c23 [Compound 11, 9-(4-fluorophenyl)-1H-phenalen-1-one] | > 10 | 8 ± 0.2 | – | –
14 | O=C1C=Cc2cccc3cccc1c23 [Compound 1, 1H-phenalen-1-one] | 2.46 ± 0.08 | 16 ± 0.4 | – | –
15 | 2-((2,6-dimethylphenyl)amino)-2,3-dihydro-1H-phenalen-1-one [Compound 24] | – | – | – | IC50 ([1]; FCR3 strain): > 10 µM; MCF-7 % Inh ± DS (10 μM) (MCF-7 cells): 7 ± 0.5%
16 | Cc1cccc(C)c1Nc1ccc2cccc3c2c1C(=O)C=C3 [Compound 16, 9-[(2,6-dimethylphenyl)amino]-1H-phenalen-1-one] | > 10 | 0 | – | –
17 | O=C1C=Cc2c(O)ccc3ccc(O)c1c23 [Compound 30, 4,9-dihydroxy-1H-phenalen-1-one] | > 10 | 16 ± 0.4 | diminished antiplasmodium activity | –

Row | Compound | IC50 [1, 3] [µM] | inhibition at 10 µM (MCF-7 cells) [%] | antiplasmodium activity (in words) [2] | further results
18 | COc1ccc(-c2ccc3cccc4c3c2C(=O)C=C4)cc1 [Compound 12, 9-(4-methoxyphenyl)-1H-phenalen-1-one] | > 10 | 15 ± 0.3 | – | –
19 | N#Cc1ccc(-c2ccc3cccc4c3c2C(=O)C=C4)cc1 [Compound 10, 4-(1-oxo-1H-phenalen-9-yl)benzonitrile] | > 10 | 10 ± 1 | detrimental to activity | –
20 | O=C1C=Cc2cccc3ccc(-c4ccccn4)c1c23 [Compound 1c] | – | – | – | IC50 (Plasmodium falciparum): 21 µM
21 | O=C1C(Br)=Cc2cccc3cccc1c23 [Compound 2, 2-Bromo-1H-phenalen-1-one] | < 1 | 2 ± 0.7 | – | IC50 ([1]; FCR3 strain): 0.7 ± 0.04 µM
22 | N#CC1=Cc2cccc3cccc(c23)C1=O [Compound 20, 1-oxo-1H-phenalene-2-carbonitrile] | > 10 | 11 ± 0.2 | neither the 2-cyano compound (20) nor the 9-amido compound (19) were active, even at 10 µM | –
23 | N-(1-oxo-1H-phenalene-2-yl)carboxamide [Compound 21] | – | – | – | IC50 ([1]; FCR3 strain): > 10 µM; MCF-7 % Inh ± DS (10 μM) (MCF-7 cells): 8 ± 0.3%
24 | O=C1C=Cc2cccc3ccc(Nc4ccc(Cl)cc4)c1c23 [Compound 17, 9-[(4-chlorophenyl)amino]-1H-phenalen-1-one] | > 10 | 12 ± 0.3 | – | –
25 | COc1ccc2c3c(cncc13)C(=O)C=C2 [Compound 36, 9-methoxy-4H-benzo[de]isoquinolin-4-one] | > 10 | 5 ± 0.9 | – | –
26 | COc1ccc(C2=CC(=O)c3cccc4cccc2c34)cc1 [Compound 1d] | – | – | – | IC50 (Plasmodium falciparum): 2.1 µM
27 | O=C1C(c2ccccc2)=Cc2cccc3cccc1c23 [Compound 4, 2-phenyl-1H-phenalen-1-one] | > 10 | 14 ± 0.8 | significant loss in antiplasmodium activity | –
28 | CCOC(=O)c1cc2cccc3c2c(c1O)C(=O)C=C3 [Compound 33, ethyl 9-hydroxy-1-oxo-1H-phenalene-8-carboxylate] | > 10 | 0 | lost | –
29 | O=C1C=Cc2cccc3ccc(O)c1c23 [Compound 9-OH, 9-hydroxy-1H-phenalen-1-one] | < 1 | 6 ± 0.7 | sub-micromolar activity | IC50 ([1]; FCR3 strain): 0.72 ± 0.06 µM
30 | NC(=O)c1ccc2cccc3c2c1C(=O)C=C3 [Compound 19, 1-oxo-1H-phenalene-9-carboxamide] | > 10 | 0 | neither the 2-cyano compound (20) nor the 9-amido compound (19) were active, even at 10 µM | –
31 | COc1ccc(NC2=Cc3cccc4cccc(c34)C2=O)cc1 [Compound 23, 2-(4-methoxyanilino)-1H-phenalen-1-one] | > 10 | 12 ± 0.6 | – | –
32 | O=C(O)c1cc2cccc3c2c(c1O)C(=O)C=C3 [Compound 34, 9-hydroxy-1-oxo-1H-phenalene-8-carboxylic acid] | > 10 | 0 | lost | –
33 | O=C1C(Nc2ncccn2)=Cc2cccc3cccc1c23 [Compound 25, 2-(pyrimidin-2-ylamino)-1H-phenalen-1-one] | > 10 | 16 ± 0.9 | – | –
34 | O=C1C(Nc2ccc(Cl)cc2)=Cc2cccc3cccc1c23 [Compound 22, 2-[(4-chloroanilino]-1H-phenalen-1-one] | > 10 | 42 ± 0.1 | – | –
